From PubChem BioAssay (NCI)
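GI50 marks 50% less growth. TGI is the concentration that stops growth completely.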

Experiments:
Test in all cases: NCI-60 cell line screen, 384-well format
786-0 renal = tested on: 786-0 renal
A498 renal = tested on: A498 renal
A549 NSCLC = tested on: A549 NSCLC
ACHN renal = tested on: ACHN renal
BT-549 breast = tested on: BT-549 breast
CAKI-1 renal = tested on: CAKI-1 renal
CCRF-CEM leukemia = tested on: CCRF-CEM leukemia
COLO 205 colon = tested on: COLO 205 colon
DU-145 prostate = tested on: DU-145 prostate
HCC-2998 colon = tested on: HCC-2998 colon
HCT-116 colon = tested on: HCT-116 colon
HCT-15 colon = tested on: HCT-15 colon
HL-60(TB) leukemia = tested on: HL-60(TB) leukemia
HOP-92 NSCLC = tested on: HOP-92 NSCLC
HT29 colon = tested on: HT29 colon
IGROV1 ovarian = tested on: IGROV1 ovarian
K-562 leukemia = tested on: K-562 leukemia
KM12 colon = tested on: KM12 colon
LOX IMVI melanoma = tested on: LOX IMVI melanoma
M14 melanoma = tested on: M14 melanoma
MALME-3M melanoma = tested on: MALME-3M melanoma
MCF7 breast = tested on: MCF7 breast
MDA-MB-231 breast = tested on: MDA-MB-231 breast
MDA-MB-435 melanoma = tested on: MDA-MB-435 melanoma
MDA-MB-468 breast = tested on: MDA-MB-468 breast
MOLT-4 leukemia = tested on: MOLT-4 leukemia
NCI-H226 lung = tested on: NCI-H226 lung
NCI-H322M lung = tested on: NCI-H322M lung

How did the GI50 ([…]-0 renal) turn out when `C=CC(=O)Nc1cc(Nc2ncc(C(=O)OC(C)C)c(-c3cn(C)c4ccccc34)n2)c(OC)cc1N(C)CCN(C)C` was run?
Its GI50 is 1300 nM.

And the TGI (786-0 renal)?
Its TGI is 2580 nM.

And the GI50 (A498 renal)?
The GI50 was 1250 nM.

What about the TGI (A498 renal) of the same compound?
Its TGI is 2530 nM.

What about the GI50 (A549 NSCLC) of the same compound?
Its GI50 is 1450 nM.

What about the TGI (A549 NSCLC) of the same compound?
Its TGI is 4670 nM.

And the GI50 (ACHN renal)?
The GI50 was 64.7 nM.

What about the TGI (ACHN renal) of the same compound?
The TGI was 1850 nM.

And the GI50 (BT-549 breast)?
The GI50 was 1910 nM.

What about the TGI (BT-549 breast) of the same compound?
Its TGI is 3480 nM.

What about the GI50 (CAKI-1 renal) of the same compound?
The GI50 was 1040 nM.

What about the TGI (CAKI-1 renal) of the same compound?
The TGI was 2250 nM.

What about the GI50 (CCRF-CEM leukemia) of the same compound?
The GI50 was 1810 nM.

And the TGI (CCRF-CEM leukemia)?
Its TGI is 3200 nM.

What about the GI50 (COLO 205 colon) of the same compound?
The GI50 was 1740 nM.

What about the TGI (COLO 205 colon) of the same compound?
Its TGI is 3130 nM.

What about the GI50 (DU-145 prostate) of the same compound?
The GI50 was 1150 nM.

What about the TGI (DU-145 prostate) of the same compound?
Its TGI is 6140 nM.

What about the GI50 (HCC-2998 colon) of the same compound?
The GI50 was 1470 nM.

And the TGI (HCC-2998 colon)?
The TGI was 2800 nM.

What about the GI50 (HCT-116 colon) of the same compound?
Its GI50 is 1640 nM.

What about the TGI (HCT-116 colon) of the same compound?
Its TGI is 3000 nM.

And the GI50 (HCT-15 colon)?
Its GI50 is 1830 nM.

And the TGI (HCT-15 colon)?
The TGI was 3230 nM.

What about the GI50 (HL-60(TB) leukemia) of the same compound?
Its GI50 is 1650 nM.

And the TGI (HL-60(TB) leukemia)?
Its TGI is 3000 nM.

And the GI50 (HOP-92 NSCLC)?
The GI50 was 1450 nM.

And the TGI (HOP-92 NSCLC)?
The TGI was 2860 nM.

What about the GI50 (HT29 colon) of the same compound?
The GI50 was 1670 nM.

And the TGI (HT29 colon)?
Its TGI is 3050 nM.

What about the GI50 (IGROV1 ovarian) of the same compound?
The GI50 was 1010 nM.

What about the TGI (IGROV1 ovarian) of the same compound?
Its TGI is 2310 nM.

And the GI50 (K-562 leukemia)?
The GI50 was 1930 nM.

What about the TGI (K-562 leukemia) of the same compound?
Its TGI is 3340 nM.

What about the GI50 (KM12 colon) of the same compound?
The GI50 was 1760 nM.

What about the TGI (KM12 colon) of the same compound?
The TGI was 3210 nM.

And the GI50 (LOX IMVI melanoma)?
The GI50 was 2220 nM.

And the TGI (LOX IMVI melanoma)?
Its TGI is 3670 nM.

And the GI50 (M14 melanoma)?
Its GI50 is 1760 nM.

What about the TGI (M14 melanoma) of the same compound?
Its TGI is 3140 nM.

What about the GI50 (MALME-3M melanoma) of the same compound?
Its GI50 is 1690 nM.

What about the TGI (MALME-3M melanoma) of the same compound?
The TGI was 3060 nM.

What about the GI50 (MCF7 breast) of the same compound?
The GI50 was 1710 nM.

What about the TGI (MCF7 breast) of the same compound?
Its TGI is 3110 nM.

What about the GI50 (MDA-MB-231 breast) of the same compound?
Its GI50 is 1790 nM.

What about the TGI (MDA-MB-231 breast) of the same compound?
Its TGI is 3240 nM.

And the GI50 (MDA-MB-435 melanoma)?
The GI50 was 1830 nM.

And the TGI (MDA-MB-435 melanoma)?
The TGI was 3230 nM.

What about the GI50 (MDA-MB-468 breast) of the same compound?
The GI50 was 26 nM.

And the TGI (MDA-MB-468 breast)?
The TGI was 1330 nM.

What about the GI50 (MOLT-4 leukemia) of the same compound?
Its GI50 is 1130 nM.

What about the TGI (MOLT-4 leukemia) of the same compound?
The TGI was 2330 nM.

And the GI50 (NCI-H226 lung)?
Its GI50 is 1980 nM.

What about the TGI (NCI-H226 lung) of the same compound?
Its TGI is 4640 nM.

And the GI50 (NCI-H322M lung)?
Its GI50 is 14.3 nM.
